Experimental data: US7652037B2, “Methods of lowering lipid levels in a mammal” (City Of Hope, priority 2003, dated 2010)
Marks after values point to notes of the source that are not given here.

Key:
[1] = tested on: STZ-Diabetic Rats; experiment: Body weight and glycemia in STZ-diabetic and control rats (Example 1); assay type: in vivo, rat; details: for Body Weight / HbA1c / Plasma Glucose: mean ± SD; for effect on plasma glucose and glycated hemoglobin / weight compared to the diabetic control rats: diabetic rats; for weight compared to the diabetic control rats: only LR-90 statistically significant
Description: Male Sprague-Dawley rats (about 175 to 200 g) were adapted for one week prior to treatment, then rendered diabetic by intra-peritoneal injection of STZ (65 mg/kg in citrate buffer, pH 4.5) after an overnight fast. Control (non-diabetic) animals were injected with the buffer only. Diabetes was confirmed by measuring the plasma glucose concentrations 7 days after Streptozotocin (STZ)-injection. Only animals with a plasma glucose concentration greater than 20 mmol were classified as diabetic and used in the study. These diabetic rats were divided randomly into an untreated diabetic control group and a diabetic treatment group. The treatment group received an LR compound at 50 mg/l in their drinking water throughout the duration of the study (32 weeks for LR-90; 30 weeks for LR-9 and LR-74). All animals were housed individually and were given free access to food and water.
Blood (from the tail vein) and urine samples were collected from rats for glycemic control analysis and albuminuria measurements. Glycemia was monitored every 8 weeks by measuring plasma glucose and glycated hemoglobin. Plasma or serum also was tested for total cholesterol and total triglycerides. Progression of renal dysfunction was assessed by measuring urinary albumin to creatinine ratio (UA/Cr) and serum or plasma creatinine. For measurement of urinary albumin and creatinine concentrations, rats were housed in metabolic cages for 24 hours and urine was collected in a collection beaker with several drops of toluene to inhibit microbial growth.
At the end of study, the rats were weighed and anaesthetized with isoflourane and blood was drawn by heart puncture and transferred into heparinized and non-heparinized vacutainer tubes on ice. These blood samples were later centifuged for plasma and serum collection respectively, and stored at −70° C. until the time of analysis. Rats were killed by over-anesthetization and cardiac puncture and the kidneys were removed immediately, weighed, decapsulated and rinsed in PBS buffer. Sections of the kidneys were stored in 10% NBF for subsequent microscopic examinations and immunohistochemistry. The tail of each individual rat was cut, removed and stored in 50 mL conical tubes at −70° C.
Statistical analyses of data presented in this example and the following examples were first analyzed by ANOVA and post-hoc comparisons between group means were analyzed using unpaired Student's t test. A p value of less than 0.05 was considered statistically significant. Data are presented as means±SD.

[2] = Carbonyl trapping activity; details: compared with AG, PM and LR-90
[3] = Hydroxyl radical production, hydroxylation of benzoate by H2O2; details: sodium benzoate + H2O2, cell-free
Description: The effects of the compounds on free radical production were evaluated in a cell-free system. In vitro hydroxyl radical production was determined by the hydroxylation of benzoate by H2O2 as described in Giardino et al., Diabetes 47:1114-1120, 1998. In brief, 30 mmol/l sodium benzoate in PBS buffer, pH 7.4, was incubated with 10 mmol/l H2O2 overnight at 37° C. alone and in the presence of various amounts of inhibitor compounds. After incubation, aliquots from each sample were analyzed for fluorescence (305 nm excitation; 408 nm emission). Results were expressed as the amount of salicylate equivalent (μM) produced by the hydroxylation of benzoate. Mannitol, a known hydroxyl radical scavenger, was included in the experiment as control.

[4] = tested on: STZ-Diabetic Rats; experiment: Plasma lipids and plasma lipid hydroperoxides in STZ-diabetic rats (Example 13); assay type: in vivo, rat; details: for reduction of plasma lipid hydroperoxides: diabetic animals; for reduction in plasma cholesterol / reduction in plasma triglycerides: diabetic rats compared with untreated diabetic animals; for plasma cholesterol / plasma triglycerides: treated diabetic rats, means/SEM; for plasma cholesterol: untreated diabetic 136±13; for plasma triglycerides: untreated diabetic 598±110
Description: (§1) Diabetes was induced in male Sprague-Dawley rats by a single i.p. injection of STZ (65 mg/kg in citrate buffer, pH 4.5) after an overnight fast. Non-diabetic animals were injected with citrate buffer only. One week after STZ injection, only animals with >20 mmol/L plasma glucose were classified as diabetic and included in the study. Diabetic rats were divided randomly into the following treatment groups: diabetic untreated (D); and two diabetic treatment groups, receiving either LR-9 (D+LR-9) or LR-74 (D+LR-74) at 50 mg/L in drinking water. Three non-diabetic groups were studied concurrently: one untreated non-diabetic group (ND), and two non-diabetic groups treated with either LR-9 (ND+LR-9) or LR-74 (ND+LR-74) at 50 mg/L in drinking water.
At 32 weeks of the study, the rats were killed by over-anesthetization with isoflourane and cardiac puncture. Blood samples were collected from each animal and transferred accordingly into heparinized vacutainer tubes and were later centrifuged for plasma isolation. Aliquots of these plasma samples were stored at −70° C. until the time of analysis. Kidneys were removed immediately, decapsulated and rinsed in PBS buffer. Sections of the left kidneys were stored in 10% neutral buffered formalin for subsequent microscopic examinations and AGE immunohistochemistry. Sections of abdominal skin and tail of each individual rat were removed, rinsed in PBS buffer and stored at −70° C. for subsequent AGE quantification and crosslinking analyses.

[5] = tested on: STZ-Diabetic Rats; experiment: Body weight and glycemia in STZ-diabetic rats (Examples 10 and 14); assay type: in vivo, rat; details: for Body Weight / HbA1c / Plasma Glucose: 50 mg/L in drinking water, 32 weeks; for effect on hyperglycemia and body weight gains: either ND or D rats
Description: as §1
(§2) Both plasma glucose and body weight were checked before administration of the drug, and no differences were detected among the three diabetic treatment groups or among the three non-diabetic groups. All animals were housed individually and were given free access to food and water. Glycemic control and body weights were monitored periodically. To limit hyperglycemia and ensure that animals maintained body weight, diabetic animals received 3 IU of ultralente insulin two to three times per week. The study was carried out over 32 weeks. Progression of renal dysfunction was assessed by measuring urinary albumin and plasma creatinine concentrations according to known methods. Figarola et al., Diabetologia 46:1140-115, 2003.
as §2, with “Rats were treated and divided into treatment groups as described in Example 10. Both” for “Both”, “weeks.” for “weeks. Progression of renal dysfunction was assessed by measuring urinary albumin and plasma creatinine concentrations according to known methods. Figarola et al., Diabetologia 46:1140-115, 2003.”

[6] = STZ-diabetic (D) rats, LR-90 50 mg/l in drinking water, 32 weeks
[7] = non-diabetic (ND) rats, LR-90 50 mg/l in drinking water, 32 weeks
[8] = STZ-diabetic (D) rats, 50 mg/l in drinking water, 30 weeks
[9] = non-diabetic (ND) rats, 50 mg/l in drinking water, 30 weeks

Row | Compound | effect on plasma glucose and glycated hemoglobin ([1]; 50 mg/l in drinking water) | weight compared to the diabetic control rats ([1]; 50 mg/l in drinking water) | Body Weight [1, 8] [g] | HbA1c [1, 8] | Plasma Glucose [1, 8] [mmol/L] | Body Weight [1, 9] [g] | HbA1c [1, 9] [%] | Plasma Glucose [1, 9] [mmol/L] | carbonyl trapping activities [2] | inhibition of hydroxyl radical formation [3] | reduction of plasma lipid hydroperoxides [4] [%] | reduction in plasma cholesterol [4] | reduction in plasma triglycerides [4] [%] | plasma cholesterol [4] [mg/dL] | plasma triglycerides [4] [mg/dL] | Body Weight ([5]; diabetic (D) rats) [g] | HbA1c ([5]; diabetic (D) rats) [%] | Plasma Glucose ([5]; diabetic (D) rats) [mmol/L] | effect on hyperglycemia and body weight gains [5] | Body Weight ([5]; non-diabetic (ND) rats) [g] | other results
1 | methylene bis(4,4′-(2-chlorophenylureidophenoxyisobutyric acid) [LR-90] | did not affect | moderate increase in weight | – | – | – | – | – | – | – | – | – | – | – | – | – | – | – | – | – | – | Body Weight [1, 6]: 337.6 ± 26.6^c g; HbA1c [1, 6]: 3.3 ± 0.4%; Plasma Glucose [1, 6]: 28.9 ± 3.4 mmol/L; Body Weight [1, 7]: 723.0 ± 21.9 g; HbA1c [1, 7]: 1.5 ± 0.1%; Plasma Glucose [1, 7]: 6.8 ± 0.7 mmol/L
2 | CC(C)(Oc1ccc(NC(=O)c2ccc3ccccc3c2)cc1)C(=O)O [LR-9, 4-(2-napthylcarboxamido) phenoxyisobutyric acid] | did not affect | moderate increase in weight | 288.0 ± 71.8 | 1.95 ± 0.22^b % | 27.1 ± 1.3 | 681.0 ± 9.3 | 0.90 ± 0.08 | 8.2 ± 0.9 | weaker | strong inhibitors | 35 | ≤ 30% | ≤ 60 | 96 ± 5 | 239 ± 50 | 288.0 ± 29.3 | 2.0 ± 0.1 | 27.1 ± 0.5 | no effect | 681.0 ± 4.6 | HbA1c ([5]; non-diabetic (ND) rats): 0.9 ± 0.1%; Plasma Glucose ([5]; non-diabetic (ND) rats): 8.2 ± 0.5 mmol/L
3 | CC(Oc1cccc2cccnc12)C(=O)O (stereo not shown) [LR-74, 2-(8-quinolinoxy) propionic acid] | did not affect | moderate increase in weight | 314.7 ± 53.0 | 2.10 ± 0.30% | 26.9 ± 1.5 | 744.0 ± 51.8 | 0.87 ± 0.12 | 6.8 ± 0.8 | weaker | strong inhibitors | 45 | approximately 30% | ~70 | 93 ± 2 | 161 ± 29 | 314.7 ± 21.6 | 2.1 ± 0.1 | 26.9 ± 0.6 | no effect | 744.0 ± 25.8 | HbA1c ([5]; non-diabetic (ND) rats): 0.9 ± 0.1%; Plasma Glucose ([5]; non-diabetic (ND) rats): 6.8 ± 0.4 mmol/L
